What all share (assay type): cell-based
Experiment [1] has as its system FLucY255ACG/K529TCG mutant. In words: FLuc dual caged UAA decaging luminescence assay. As to conditions: dual incorporation of ONBY with TCOK/PABK. An excerpt:
To established a method for orthogonal activation control of proteins, two caged UAAs are incorporated site-specifically into the active pocket or adjacent sites of target proteins through the dual rare codon recoding strategy, wherein steric hindrance leads to the protein inactivation, followed by protein activation through photochemical or chemical decaging strategies. The TCG/ACG dual recoding system decodes TCG/ACG sites as serine/threonine in the absence of UAAs. During the screening of FLuc, the K529 and Y255 site are identified with minimal background upon serine incorporation and threonine incorporation respectively, which were subsequently used for dual caged UAA incorporation. Using the FLucY255ACG/K529TCG mutant as an example, the TCG recoding system decoding ONBY, the ACG recoding system decoding TCOK/PABK, and reporter genes were co-transfected into cells, followed by luminescence assay to evaluate protein activation.

Experiment [2] deals with rare codon in EGFP reporter, HEK293T cells. The experiment is described as follows: LC-MS recoding efficiency of rare codons in EGFP reporter. As to conditions: TetRS/PylTyyy, 200 μM TetBu, HEK293T. As to the method:
(§1) The recoding translation system and the rare codon-bearing POI were co-transfected into HEK293T cells. Then, two methods were used to calculate the ncAA recoding rate: 1) LC-MS analysis: the protein of the POI mixture, including the fraction incorporated with ncAA and the fraction with NAA at rare codons, was purified by Ni2+-NTA beads and subjected to LC-MS analysis. The ncAA recoding rate was determined by the intensity of two fractions quantified by LC-MS. 2) TCO-PEG5000 mass tag labeling analysis: this method was suitable for quantifying the TetBu recoding rate in this work. When the protein mixture was incubated with TCO-PEG5000 mass tag, the protein incorporated with TetBu would be labeled by this mass tag and migrated much slower in SDS-PAGE.
(§2) When the recoding system (TetRS/PylTyyy) is co-expressed with a target protein carrying the recoding codon in HEK293T, the recoding codon can be translated into a natural amino acid by endogenous tRNA (Dec-tRNA), or recoding into TetBu by the engineered tRNA (Rec-tRNA), producing a mixture of protein byproducts (with a single-site mutation) and the target protein containing TetBu. Based on this, two methods were established to assess sense codon recoding efficiency: a) Liquid chromatography-mass spectrometry (LC-MS) for differentiates proteins based on molecular weight differences, and b) TCO-PEG5000 macromolecular label target proteins containing TetBu, which increases their molecular weight by 5 kDa. The shift in protein bands is detected via immunoblotting (FIG. 2).
(1) Transfection: Plasmids encoding the TetBu/PylTyyy recoding system (where xxx represents different codons and yyy represents different anticodons) were co-transfected with the plasmid mCherry-T2A-EGFP^N149XXX-6×His at a 1:1 (g:g) ratio. For a 10 cm dish, the total transfection mixture contained 20 μg DNA+[…] Lipofectamine 2000+2 mL Opti-MEM.
(2) Protein expression and purification: After 6 hours, the medium was replaced with fresh DMEM containing 200 μM TetBu for 40 hours to induce protein expression. Cells were lysed in 1 mL Modified RIPA Buffer, and the supernatant was purified using Ni-NTA beads.
(3) LC-MS analysis of recoding efficiency:Using a Waters Xevo G2-XS TOF Mass Spectrometer, the recoding efficiency of rare codons (CTA, GTA, CGT, CCG, GCG, ACG, and TCG) at the EGFP149 site was evaluated.
(2) Cell transfection and protein expression purification: HEK293T cells were seeded in 10 cm culture dishes and transfected at 60-70% confluency. For each transfection, […] of plasmid carrying mCherry-T2A-EGFPY151TCG-6×His was co-transfected with one of the following recoding system plasmids: chPhe_AcFRS/12×(U6-chPheTCGA), EcTyr_OmeYRS/12×(U6-EcTyrTCGA), or EcLeu_OmeYRS/12×(U6-EcLeuTCGA). After 6 hours, the medium was replaced with serine/glycine-free DMEM/F12 containing 500 μM of the respective unnatural amino acid. Following protein expression and purification, LC-MS was used to determine TCG recoding efficiency at position 151 of EGFP. Detailed transfection and purification protocols following section 2.2.1.2, with cell culture conditions in serine-free medium as described in Example 2.

In experiment [3] the test system is IL-1B, IL-2, IL-4, IL-6 bearing TCG codon, HEK293T cells. In words: TCO-PEG5000 mass tag labeling recoding efficiency in interleukin proteins. As to conditions: TetRS/PylTCGA, 200 μM TetBu, serine/glycine-free. As to the method:
as §1, §2
The recoding system and plasmids containing the TCG codon for the cytokines were co-transfected into HEK293T cells. Six hours post-transfection, the medium was replaced with serine/glycine-free DMEM/F12 medium supplemented with 200 μM TetBu. After 40 hours of protein expression, 500 μL of Modified RIPA lysis buffer was added to each well to lyse the cells. The TCO-PEG5000 labeling method was used to assess the recoding efficiency.

Another experiment has as its system HEK293T cells proteome. In words: Proteome background incorporation, TCO-biotin streptavidin dot blot. The following applies: CTA and TCG codon groups among 7 rare codons; 200 μM TetBu. An excerpt: When the TetRS/PylTyyy recoding system is expressed in HEK293T, it recodes endogenous genomic codons into TetBu, generating a modified proteome containing TetBu. The IEDDA reaction between TetBu and trans-cyclooctene (TCO) enables biotinylation of TetBu-containing proteins via TCO-Biotin. Streptavidin dot blot detects biotin signals, where signal intensity correlates with TetBu incorporation levels (FIG. 3, right).
1.3.2 Screening of Rare Codons with Low Background Incorporation • (1) Intracellular expression of the recoding system: Plasmids encoding TetBu/PylTyyy (yyy=anticodons for TCG, ACG, GCG, CCG, CGT, GTA, CTA) were transfected using Lipofectamine 2000. After 6 hours, cells were treated with fresh DMEM±200 μM TetBu for 40 hours. Cells were lysed in 100 μL Modified RIPA Buffer to obtain whole-cell lysates.
The reaction system was prepared as described in Table 3. Reaction products were mixed with 7 μL bromophenol blue-free 4×SDS loading buffer, boiled at 100° C. for 10 min, and analyzed via streptavidin dot blot.
Samples were spotted onto a nitrocellulose membrane and air-dried at room temperature for 15 min. The membrane was washed with 10 mL TBST (80 rpm, 5 min) three times, discarding the supernatant each time. Blocking was performed with 10 mL TBST containing 5% non-fat milk for 1 h, followed by three additional TBST washes (10 mL, 80 rpm, 5 min each). […]

Experiment [4] relates to Ser-tRNACGA knockout HEK293T cell lines 1A8, 2A3, 3A12, 4C23. The experiment is described as follows: LC-MS TCG recoding efficiency in Ser-tRNACGA knockout cell lines. The following applies: for efficiency in recoding TCG codon at position 151 of EGFP: single-copy recoding tRNA. The text has this:
Four sgRNAs targeting Ser-tRNACGA were designed (Table 6). CRISPR/Cas9 was used to generate knockout polyclonal populations, followed by FACS sorting to isolate monoclonal lines. Sequencing confirmed successful editing in four knockout strains: 1A8, 2A3, 3A12, and 4C23 (FIG. 6).
This example evaluates the TCG codon recoding capability of the knockout cell lines using the TetRS/PylTCGA recoding system as a model.

Experimental findings from patent US20250327074A1 (SHAOXING INSTITUTE, ZHEJIANG UNIVERSITY, priority 2024, published 2025) are described below.

With `N[C@@H](Cc1ccc(OCc2ccccc2[N+](=O)[O-])cc1)C(=O)O` [ONBY], the “FLuc activity in the presence of both caged UAAs, before decaging” value in experiment [1] was “nearly complete inactivation”.
Consider `[N-]=[N+]=Nc1ccc(COC(=O)NCCCC[C@H](N)C(=O)O)cc1` [PABK], for which the “FLuc activity in the presence of both caged UAAs, before decaging” value in experiment [1] is reported as “nearly complete inactivation”.
Still for that read-out and setting: the same measure for `N[C@@H](CCCCNC(=O)OC1/C=C/CCCCC1)C(=O)O` (stereo partly drawn) [TCOK]: “nearly complete inactivation”.
With `CCCCc1nnc(-c2cccc(C[C@H](N)C(=O)O)c2)nn1` [TetBu, (S)-2-amino-3-(3-(6-butyl-1,2,4,5-tetrazin-3-yl)phenyl)propanoic acid], the recoding efficiency is given as 7.1% in experiment [2] (ACG codon at EGFP149 site) and 8.5% in experiment [2] (TCG codon at EGFP149 site). Further, the TetBu recoding efficiency is recorded as 80.8% in experiment [3] (position 62 of IL-2), 83.9% in experiment [3] (position 87 of IL-6), 99.3% in experiment [3] (position 121 of IL-4) and 78.10% in experiment [3] (position 205 of IL-1B). For the same molecule, the “proteome-wide background TetBu incorporation (biotin signal intensity)” value with HEK293T cells proteome is given as “lowest biotin signal intensity”. Further, the “efficiency in recoding TCG codon at position 151 of EGFP” value was found to be 61% in experiment [4] (knockout cell line 1A8), 51% in experiment [4] (knockout cell line 2A3), 58% in experiment [4] (knockout cell line 3A12) and 68% in experiment [4] (knockout cell line 4C23). The “improvement of TCG recoding compared to HEK293T cells” value in experiment [4] (strain 4C23) was 1.4 fold.
